Type in all cases: biochemical
The target of one assay is T1, PI3Kγ (Homo sapiens, UniProt P48736).
T1 construct: purchased Millipore Ltd (Billerica, Mass.)
The assay can be described thus: In vitro determination of the PI3K enzyme inhibitory activity in the cell free assay (ADP-Glo Kinase Assay), PI3Kγ. The note with it: ATP 30 μM, read-out: PI3K gamma inhibition. How it is done: (§1) In vitro Determination of the PI3K Enzyme Inhibitory Activity in the Cell Free Assay
(§2) Human recombinant proteins PI3Kα, PI3Kβ, PI3Kγ and PI3Kδ were purchased from Millipore Ltd (Billerica, Mass.). Compounds were dissolved at 0.5 mM in DMSO and were tested at different concentrations for their activity against PI3Ks using the ADP-Glo™ Kinase Assay (Promega, Madison Wis.) according to the manufacturer's instructions.
(§3) Briefly, the kinase reactions were performed in 384-well white plates (Greiner Bio-One GmbH, Frickenhausen). Each well was loaded with 0.1 μl of test compounds and 2.5 μl of 2× reaction buffer (40 mM Tris pH7.5, 0.5 mM EGTA, 0.5 mM Na3VO4, 5 mM β-glycerophosphate, 0.1 mg/ml BSA, 1 mM DTT), containing 50 μM PI and PS substrates (L-α-phosphatidylinositol sodium salt and L-α-phosphatidyl-L-serine, Sigma-Aldrich, St. Louis Mo.) and the PI3K recombinant proteins (PI3Kγ 0.25 ng/μl, PI3Kδ 1 ng/μl, PI3Kα 0.125 ng/μl, PI3Kβ 1 ng/μl).
(§4) The reactions were started by adding 2.5 μl of 2×ATP solution to each well (final concentrations: PI3Kγ ATP 30 μM; PI3Kδ ATP 80 μM; PI3KαATP 50 μM; PI3Kβ ATP 100 μM) and incubated for 60 min at room temperature. Subsequently, each kinase reaction was incubated for 40 min with 5 μl ADP-Glo™ Reagent, allowing depletion of unconsumed ATP. Then, the Kinase Detection Reagent (10 μl) was added in each well to convert ADP to ATP and to allow the newly synthesized ATP to be measured using a luciferase/luciferin reaction. Following 60 min incubation, the luminescence signal was measured using a Wallac EnVision® multilabel reader (PerkinElmer, Waltham Mass.).
(§5) Curve fitting and IC50 calculation were carried out using a four-parameter logistic model in XLfit (IDBS, Guilford, UK) for Microsoft Excel (Microsoft, Redmont, Wash.).

Another assay concerns the target T2, PI3Kα (Homo sapiens, UniProt P42336).
T2 construct: purchased Millipore Ltd (Billerica, Mass.)
As to the kind of experiment: In vitro determination of the PI3K enzyme inhibitory activity in the cell free assay (ADP-Glo Kinase Assay), PI3Kα. The note with it: ATP 50 μM, read-out: PI3K alpha inhibition. How it is done:
as §1, §2, §3, §4, §5
Background: ADP-Glo first removes unused ATP, then detects ADP through luciferase.

Another assay concerns the target T3, PI3Kβ (Homo sapiens, UniProt P42338).
T3 construct: purchased Millipore Ltd (Billerica, Mass.)
The assay can be described thus: In vitro determination of the PI3K enzyme inhibitory activity in the cell free assay (ADP-Glo Kinase Assay), PI3Kβ. To be noted: ATP 100 μM, read-out: PI3K beta inhibition. How it is done: as §1, §2, §3, §4, §5

The target in a further assay is T4, PI3Kδ (Homo sapiens, UniProt O00329).
T4 construct: purchased Millipore Ltd (Billerica, Mass.)
As to the kind of experiment: In vitro determination of the PI3K enzyme inhibitory activity in the cell free assay (ADP-Glo Kinase Assay), PI3Kδ. The note with it: ATP 80 μM, read-out: PI3K delta inhibition. How it is done:
as §1, §2, §3, §4, §5

T2 sequence (P42336 whole entry): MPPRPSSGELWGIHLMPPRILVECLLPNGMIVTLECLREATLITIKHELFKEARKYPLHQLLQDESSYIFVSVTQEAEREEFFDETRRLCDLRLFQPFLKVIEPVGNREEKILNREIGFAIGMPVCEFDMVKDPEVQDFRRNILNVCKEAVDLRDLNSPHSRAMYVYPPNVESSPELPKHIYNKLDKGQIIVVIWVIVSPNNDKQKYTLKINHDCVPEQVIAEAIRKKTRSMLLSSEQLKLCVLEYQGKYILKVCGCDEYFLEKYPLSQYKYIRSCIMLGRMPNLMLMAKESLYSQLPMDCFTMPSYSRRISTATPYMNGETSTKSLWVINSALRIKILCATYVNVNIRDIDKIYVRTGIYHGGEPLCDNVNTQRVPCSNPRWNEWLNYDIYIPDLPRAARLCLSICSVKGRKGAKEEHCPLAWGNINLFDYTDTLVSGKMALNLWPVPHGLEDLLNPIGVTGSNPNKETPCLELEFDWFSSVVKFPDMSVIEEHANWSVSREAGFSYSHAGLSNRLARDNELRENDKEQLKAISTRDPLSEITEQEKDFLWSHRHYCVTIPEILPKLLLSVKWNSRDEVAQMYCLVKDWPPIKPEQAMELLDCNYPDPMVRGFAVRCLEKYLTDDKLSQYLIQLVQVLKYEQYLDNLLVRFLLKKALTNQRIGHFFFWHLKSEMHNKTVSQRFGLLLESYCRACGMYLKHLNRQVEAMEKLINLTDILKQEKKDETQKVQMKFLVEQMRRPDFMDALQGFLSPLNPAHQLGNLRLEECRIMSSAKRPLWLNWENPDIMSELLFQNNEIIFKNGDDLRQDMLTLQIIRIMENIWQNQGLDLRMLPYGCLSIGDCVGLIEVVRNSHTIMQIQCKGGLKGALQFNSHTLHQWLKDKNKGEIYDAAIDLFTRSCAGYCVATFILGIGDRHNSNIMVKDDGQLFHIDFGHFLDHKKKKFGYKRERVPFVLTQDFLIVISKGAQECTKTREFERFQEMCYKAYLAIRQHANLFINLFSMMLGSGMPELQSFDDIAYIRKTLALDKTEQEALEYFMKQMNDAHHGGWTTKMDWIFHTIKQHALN
T2 sequence (P27986 whole entry partner): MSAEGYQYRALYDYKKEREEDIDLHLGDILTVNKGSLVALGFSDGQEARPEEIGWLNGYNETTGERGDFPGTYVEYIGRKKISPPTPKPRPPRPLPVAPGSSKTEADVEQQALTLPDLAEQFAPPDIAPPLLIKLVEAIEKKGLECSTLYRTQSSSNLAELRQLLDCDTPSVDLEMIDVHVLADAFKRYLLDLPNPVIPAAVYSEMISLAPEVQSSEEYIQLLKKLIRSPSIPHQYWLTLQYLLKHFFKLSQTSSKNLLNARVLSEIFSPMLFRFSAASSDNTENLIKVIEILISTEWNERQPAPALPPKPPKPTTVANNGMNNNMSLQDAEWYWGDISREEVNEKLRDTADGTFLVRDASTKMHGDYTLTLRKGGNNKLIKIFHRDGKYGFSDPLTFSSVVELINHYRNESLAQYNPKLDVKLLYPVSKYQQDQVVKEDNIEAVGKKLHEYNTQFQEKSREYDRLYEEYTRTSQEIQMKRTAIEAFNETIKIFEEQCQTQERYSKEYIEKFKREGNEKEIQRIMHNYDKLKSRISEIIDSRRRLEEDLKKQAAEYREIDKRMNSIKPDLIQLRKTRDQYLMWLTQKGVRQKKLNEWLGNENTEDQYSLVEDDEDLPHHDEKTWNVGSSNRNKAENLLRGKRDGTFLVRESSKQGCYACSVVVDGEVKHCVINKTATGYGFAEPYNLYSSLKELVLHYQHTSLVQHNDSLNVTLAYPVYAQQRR
T1 sequence (P48736 whole entry): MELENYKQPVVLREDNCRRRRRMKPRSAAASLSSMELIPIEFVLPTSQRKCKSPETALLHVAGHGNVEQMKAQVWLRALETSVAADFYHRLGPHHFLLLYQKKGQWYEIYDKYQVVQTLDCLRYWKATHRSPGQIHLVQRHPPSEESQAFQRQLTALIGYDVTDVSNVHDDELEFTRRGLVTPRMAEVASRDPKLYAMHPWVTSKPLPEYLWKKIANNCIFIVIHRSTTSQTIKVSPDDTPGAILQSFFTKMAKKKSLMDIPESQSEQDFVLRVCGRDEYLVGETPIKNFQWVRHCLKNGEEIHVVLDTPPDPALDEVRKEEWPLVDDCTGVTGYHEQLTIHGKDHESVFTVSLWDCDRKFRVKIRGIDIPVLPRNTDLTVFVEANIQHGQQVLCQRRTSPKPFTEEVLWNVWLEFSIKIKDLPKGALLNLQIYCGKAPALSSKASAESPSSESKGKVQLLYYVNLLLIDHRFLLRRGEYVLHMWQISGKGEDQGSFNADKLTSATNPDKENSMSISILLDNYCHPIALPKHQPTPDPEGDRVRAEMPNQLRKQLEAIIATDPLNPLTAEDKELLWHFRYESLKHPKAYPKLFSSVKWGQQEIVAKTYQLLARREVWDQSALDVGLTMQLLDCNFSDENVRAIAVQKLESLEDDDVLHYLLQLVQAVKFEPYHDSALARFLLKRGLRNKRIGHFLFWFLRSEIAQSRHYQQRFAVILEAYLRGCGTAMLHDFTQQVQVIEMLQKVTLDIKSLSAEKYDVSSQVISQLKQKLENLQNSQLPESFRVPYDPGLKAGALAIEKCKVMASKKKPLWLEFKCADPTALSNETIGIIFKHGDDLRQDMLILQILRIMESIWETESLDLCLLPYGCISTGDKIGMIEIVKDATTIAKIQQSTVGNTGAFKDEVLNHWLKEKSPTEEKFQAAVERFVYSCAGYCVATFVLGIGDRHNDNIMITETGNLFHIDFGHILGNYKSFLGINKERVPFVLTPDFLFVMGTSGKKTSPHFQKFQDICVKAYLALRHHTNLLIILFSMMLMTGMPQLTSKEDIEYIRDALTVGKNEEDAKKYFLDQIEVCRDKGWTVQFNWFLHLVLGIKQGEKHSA
T4 sequence (O00329 whole entry): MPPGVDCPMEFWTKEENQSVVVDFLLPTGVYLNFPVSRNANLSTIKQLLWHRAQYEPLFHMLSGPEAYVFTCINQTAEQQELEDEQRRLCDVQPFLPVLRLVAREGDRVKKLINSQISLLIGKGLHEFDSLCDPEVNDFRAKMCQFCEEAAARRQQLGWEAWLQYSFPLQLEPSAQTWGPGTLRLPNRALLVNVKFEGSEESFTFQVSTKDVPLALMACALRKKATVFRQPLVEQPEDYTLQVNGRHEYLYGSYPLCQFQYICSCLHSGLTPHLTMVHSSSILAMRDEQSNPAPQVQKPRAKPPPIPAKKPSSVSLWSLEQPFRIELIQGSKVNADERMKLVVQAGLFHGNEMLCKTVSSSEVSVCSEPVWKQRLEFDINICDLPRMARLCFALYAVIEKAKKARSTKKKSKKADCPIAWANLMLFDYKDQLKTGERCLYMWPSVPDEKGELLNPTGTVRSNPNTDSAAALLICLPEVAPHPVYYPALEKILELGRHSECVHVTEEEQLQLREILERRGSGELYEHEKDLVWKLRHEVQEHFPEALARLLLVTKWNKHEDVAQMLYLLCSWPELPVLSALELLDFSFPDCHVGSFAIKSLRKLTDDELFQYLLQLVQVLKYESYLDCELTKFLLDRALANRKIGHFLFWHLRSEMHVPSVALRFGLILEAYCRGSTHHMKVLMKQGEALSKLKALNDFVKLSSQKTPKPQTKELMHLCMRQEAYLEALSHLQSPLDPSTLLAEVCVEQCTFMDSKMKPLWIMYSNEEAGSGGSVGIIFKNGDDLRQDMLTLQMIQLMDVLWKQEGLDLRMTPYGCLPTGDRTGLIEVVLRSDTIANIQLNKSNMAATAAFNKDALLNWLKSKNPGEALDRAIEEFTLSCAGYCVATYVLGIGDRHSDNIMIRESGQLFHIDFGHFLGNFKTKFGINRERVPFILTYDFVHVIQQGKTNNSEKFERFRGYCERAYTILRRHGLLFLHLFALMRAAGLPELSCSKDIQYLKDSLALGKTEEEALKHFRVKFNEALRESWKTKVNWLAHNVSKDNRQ
T4 sequence (P27986 whole entry partner): as the sequence (P27986 whole entry partner) above
T3 sequence (P42338 whole entry): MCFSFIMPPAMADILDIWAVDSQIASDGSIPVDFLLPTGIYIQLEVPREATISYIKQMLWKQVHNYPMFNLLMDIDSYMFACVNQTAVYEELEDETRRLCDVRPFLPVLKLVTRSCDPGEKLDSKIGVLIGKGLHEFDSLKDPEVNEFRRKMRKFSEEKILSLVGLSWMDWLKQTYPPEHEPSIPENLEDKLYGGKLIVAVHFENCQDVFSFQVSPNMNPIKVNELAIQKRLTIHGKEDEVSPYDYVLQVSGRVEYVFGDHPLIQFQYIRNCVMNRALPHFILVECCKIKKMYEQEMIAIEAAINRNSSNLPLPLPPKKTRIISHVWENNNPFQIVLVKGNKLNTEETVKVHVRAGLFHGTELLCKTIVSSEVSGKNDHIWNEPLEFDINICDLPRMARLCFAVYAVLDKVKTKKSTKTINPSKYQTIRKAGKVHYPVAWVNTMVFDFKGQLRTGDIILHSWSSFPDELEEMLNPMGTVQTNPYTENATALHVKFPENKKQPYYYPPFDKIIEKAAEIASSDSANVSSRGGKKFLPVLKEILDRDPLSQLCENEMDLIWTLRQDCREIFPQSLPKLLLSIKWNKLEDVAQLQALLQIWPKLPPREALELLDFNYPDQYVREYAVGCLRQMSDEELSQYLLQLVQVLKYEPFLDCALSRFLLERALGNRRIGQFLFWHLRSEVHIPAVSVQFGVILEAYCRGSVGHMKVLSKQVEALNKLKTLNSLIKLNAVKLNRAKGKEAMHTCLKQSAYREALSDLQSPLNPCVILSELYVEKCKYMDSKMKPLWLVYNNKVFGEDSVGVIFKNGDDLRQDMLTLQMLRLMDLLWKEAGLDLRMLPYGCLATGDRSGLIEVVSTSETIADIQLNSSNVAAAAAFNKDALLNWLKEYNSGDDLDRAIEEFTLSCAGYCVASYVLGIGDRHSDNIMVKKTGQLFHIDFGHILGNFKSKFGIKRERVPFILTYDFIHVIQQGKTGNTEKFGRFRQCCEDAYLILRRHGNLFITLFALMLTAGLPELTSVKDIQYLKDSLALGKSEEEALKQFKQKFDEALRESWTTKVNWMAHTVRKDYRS
T3 sequence (P27986 whole entry partner): as the sequence (P27986 whole entry partner) above

For `CC(NC(=O)c1nccnc1N)c1cc2ccccn2c1-c1ccccn1` (stereo not shown) [Example 54, 3-amino-N-{1-[3-(pyridin-2-yl)indolizin-2-yl]ethyl}pyrazine-2-carboxamide], the IC50 on PI3Kγ, on PI3Kα, at PI3Kβ and at PI3Kδ was > 1000 nM in each case.
On to `CC(c1cc2ccccn2c1-c1ccccn1)n1nc(-c2cnc(N)s2)c2c(N)ncnc21` (stereo not shown) [Example 103, 5-(4-amino-1-{1-[3-(pyridin-2-yl)indolizin-2-yl]ethyl}-1H-pyrazolo[3,4-d]pyrimidin-3-yl)-1,3-thiazol-2-amine], for which the IC50 at PI3Kγ is 10 to 1000 nM; at PI3Kα, > 1000 nM; at PI3Kβ, 10 to 1000 nM; on PI3Kδ, 10 to 1000 nM.
Regarding `CC(c1cc2cc(Cl)ccn2c1-c1ccccn1)n1nc(-c2cc(O)cc(F)c2)c2c(N)ncnc21` (stereo not shown) [Example 104, 3-(4-amino-1-{1-[7-chloro-3-(pyridin-2-yl)indolizin-2-yl]ethyl}-1H-pyrazolo[3,4-d]pyrimidin-3-yl)-5-fluorophenol], the IC50 is 10 to 1000 nM at PI3Kγ, 10 to 1000 nM at PI3Kα, 10 to 1000 nM on PI3Kβ and < 10 nM on PI3Kδ.
On to `CC(c1cc2ccccn2c1-c1ccc(OCCN2CCOCC2)cn1)n1nc(-c2cc(O)cc(F)c2)c2c(N)ncnc21` (stereo not shown) [Example 119, 3-{4-amino-1-[1-(3-{5-[2-(morpholin-4-yl)ethoxy]pyridin-2-yl}indolizin-2-yl)ethyl]-1H-pyrazolo[3,4-d]-pyrimidin-3-yl}-5-fluorophenol], for which the IC50 at PI3Kγ was > 1000 nM; at PI3Kα it was > 1000 nM; at PI3Kβ, 10 to 1000 nM; at PI3Kδ, < 10 nM.
Take `CC(c1cc2ccccn2c1-c1ccn(CCN(C)C)c(=O)c1)n1nc(-c2cc(O)cc(F)c2)c2c(N)ncnc21` (single isomer, unassigned) [Example 133b, 4-(2-{1-[4-amino-3-(3-fluoro-5-hydroxyphenyl)-1H-pyrazolo[3,4-d]pyrimidin-1-yl]ethyl}indolizin-3-yl)-1-[2-(dimethylamino)ethyl]-1,2-dihydropyridin-2-one]: the IC50 was 10 to 1000 nM on PI3Kγ, 10 to 1000 nM on PI3Kα, 10 to 1000 nM at PI3Kβ and < 10 nM on PI3Kδ.
As to `CC(c1c(C#N)c2ccccn2c1-c1ccccn1)n1nc(-c2cc(O)cc(F)c2)c2c(N)ncnc21` (stereo not shown) [Example 126, 2-{1-[4-amino-3-(3-fluoro-5-hydroxyphenyl)-1H-pyrazolo[3,4-d]pyrimidin-1-yl]-ethyl}-3-(pyridin-2-yl)indolizine-1-carbonitrile], the IC50 at PI3Kγ is 10 to 1000 nM; at PI3Kα, 10 to 1000 nM; at PI3Kβ, 10 to 1000 nM; at PI3Kδ, < 10 nM.
With `N#Cc1c(N)ncnc1NCc1cc2ccccn2c1-c1ccccn1` [Example 23, 4-amino-6-({[3-(pyridin-2-yl)indolizin-2-yl]methyl}amino)pyrimidine-5-carbonitrile], the IC50 on PI3Kγ was > 1000 nM; on PI3Kα, > 1000 nM; on PI3Kβ, > 1000 nM; at PI3Kδ, 10 to 1000 nM.
Turning to `CCCC#Cc1c(C(C)Nc2ncnc(N)c2C#N)cc2ccccn12` (stereo not shown) [Example 43, 4-amino-6-({1-[3-(pent-1-yn-1-yl)indolizin-2-yl]ethyl}amino)pyrimidine-5-carbonitrile], the IC50 on PI3Kγ is > 1000 nM; at PI3Kα, > 1000 nM; at PI3Kβ, 10 to 1000 nM; on PI3Kδ, 10 to 1000 nM.
As for `CC(c1cc2ccccn2c1-c1ccccn1)n1nc(-c2ccccc2)c2c(N)ncnc21` (stereo not shown) [Example 60, 3-phenyl-1-{1-[3-(pyridin-2-yl)indolizin-2-yl]ethyl}-1H-pyrazolo[3,4-d]pyrimidin-4-amine], the IC50 at PI3Kγ is > 1000 nM; at PI3Kα it was > 1000 nM; at PI3Kβ it was > 1000 nM; on PI3Kδ, 10 to 1000 nM.
`c1ccn2cc(CNc3ncnc4[nH]cnc34)cc2c1` [Example 21, N-(indolizin-2-ylmethyl)-9H-purin-6-amine]: the IC50 is > 1000 nM at PI3Kγ, > 1000 nM at PI3Kα, 10 to 1000 nM at PI3Kβ and 10 to 1000 nM at PI3Kδ.
Consider `CC(c1cc2ccccn2c1-c1ccccn1)n1nc(-c2cccc(NS(C)(=O)=O)c2)c2c(N)ncnc21` (stereo not shown) [Example 67, N-[3-(4-amino-1-{1-[3-(pyridin-2-yl)indolizin-2-yl]ethyl}-1H-pyrazolo[3,4-d]pyrimidin-3-yl)phenyl]methanesulfonamide], for which the IC50 at PI3Kγ is > 1000 nM; on PI3Kα it was > 1000 nM; on PI3Kβ it was > 1000 nM; at PI3Kδ, 10 to 1000 nM.
Take `C[C@H](c1cc2ccccn2c1-c1ccn(CCN2CCOCC2)c(=O)c1)n1nc(-c2cc(O)cc(F)c2)c2c(N)ncnc21` (single isomer, unassigned) [Example 121b, 4-(2-{1-[4-amino-3-(3-fluoro-5-hydroxyphenyl)-1H-pyrazolo[3,4-d]pyrimidin-1-yl]ethyl}indolizin-3-yl)-1-[2-(morpholin-4-yl)ethyl]-1,2-dihydropyridin-2-one]: the IC50 at PI3Kγ is 10 to 1000 nM; at PI3Kα, 10 to 1000 nM; on PI3Kβ, 10 to 1000 nM; on PI3Kδ, < 10 nM.
Take `c1ccc(-c2c(CNc3ncnc4[nH]cnc34)cn3ccccc23)cc1` [Example 17, N-[(1-phenylindolizin-2-yl)methyl]-9H-purin-6-amine]: the IC50 at PI3Kγ, at PI3Kα, on PI3Kβ and on PI3Kδ was > 1000 nM throughout.
In the case of `C[C@H](c1cc2ccccn2c1-c1ccc(CN(CCO)CCO)cn1)n1nc(-c2cc(O)cc(F)c2)c2c(N)ncnc21` (single isomer, unassigned) [Example 117a, 3-(4-amino-1-{1-[3-(5-{[bis(2-hydroxyethyl)amino]methyl}pyridin-2-yl)indolizin-2-yl]ethyl}-1H-pyrazolo[3,4-d]pyrimidin-3-yl)-5-fluorophenol], the IC50 is > 1000 nM on PI3Kγ, 10 to 1000 nM on PI3Kα, 10 to 1000 nM at PI3Kβ and < 10 nM at PI3Kδ.
With `CC(Nc1ncnc(N)c1C#CCO)c1cc2ccccn2c1-c1ccccn1` (stereo not shown) [Example 59, 3-[4-amino-6-({1-[3-(pyridin-2-yl)indolizin-2-yl]ethyl}amino)pyrimidin-5-yl]prop-2-yn-1-ol], the IC50 on PI3Kγ is > 1000 nM; at PI3Kα, > 1000 nM; on PI3Kβ it was > 1000 nM; on PI3Kδ it was 10 to 1000 nM.
As to `C[C@@H](c1cc2ccccn2c1-c1ccncc1)n1nc(-c2cc(O)cc(F)c2)c2c(N)ncnc21` (single isomer, unassigned) [Example 84, 3-(4-amino-1-{1-[3-(pyridin-4-yl)indolizin-2-yl]ethyl}-1H-pyrazolo[3,4-d]pyrimidin-3-yl)-5-fluorophenol], the IC50 on PI3Kγ is > 1000 nM; at PI3Kα, > 1000 nM; at PI3Kβ, > 1000 nM; at PI3Kδ, 10 to 1000 nM.
Regarding `CC(c1cc2ccccn2c1-c1ccn(CCN(C)C)c(=O)c1)n1nc(-c2cc(O)cc(F)c2)c2c(N)ncnc21` (stereo not shown) [Example 133, 4-(2-{1-[4-amino-3-(3-fluoro-5-hydroxyphenyl)-1H-pyrazolo[3,4-d]pyrimidin-1-yl]-ethyl}indolizin-3-yl)-1-[2-(dimethylamino)-ethyl]-1,2-dihydropyridin-2-one], the IC50 was 10 to 1000 nM at PI3Kγ, > 1000 nM on PI3Kα, 10 to 1000 nM at PI3Kβ and < 10 nM at PI3Kδ.
With `CC(c1cc2ccccn2c1-c1cc(CN(C)C)ccn1)n1nc(-c2cc(O)cc(F)c2)c2c(N)ncnc21` (stereo not shown) [Example 112, 3-{4-amino-1-[1-(3-{4-[(dimethylamino)-methyl]pyridin-2-yl}indolizin-2-yl)-ethyl]-1H-pyrazolo[3,4-d]pyrimidin-3-yl}-5-fluorophenol], the IC50 at PI3Kγ was 10 to 1000 nM; on PI3Kα, 10 to 1000 nM; at PI3Kβ it was 10 to 1000 nM; at PI3Kδ it was < 10 nM.
For `CC(c1cc2ccccn2c1-c1ccccc1F)n1nc(-c2cc(O)cc(F)c2)c2c(N)ncnc21` (stereo not shown) [Example 86, 3-(4-amino-1-{1-[3-(2-fluorophenyl)indolizin-2-yl]ethyl}-1H-pyrazolo[3,4-d]pyrimidin-3-yl)-5-fluoro-phenol], the IC50 at PI3Kγ is 10 to 1000 nM; at PI3Kα, > 1000 nM; at PI3Kβ, > 1000 nM; on PI3Kδ, 10 to 1000 nM.
